Measured values as given in patent US7858332B2, “Chemoprevention of endometrial cancer” (The Brigham and Women's Hospital, Inc., priority 2006, dated 2010).

Tested on: PTEN-null endometrial glands (latent endometrial precancers)
Test: Latent precancers (PTEN-null glands by immunohistochemistry) in paired endometrial biopsies before and after progestin therapy
Assay type: in vivo, women
Details: pre versus post therapy
Experimental: Women in Northern Norway (Tromso region) with successive endometrial biopsies taken under different hormonal conditions form the three main experimental groups of this study. Clinical aspects of these patients have been published elsewhere (Vereide, et al., Gynecol Oncol 91:526-33 (2003)), but will be summarized here. […] Just under half (10 of 22 reported in results) received low dose hormonal replacement therapy as follows: norestrin 1 mg/estradiol 2mg daily (6 patients), estriol 1-2mg daily (3 patients), tibolone 2.5 mg daily (1 patient), no therapy (12 patients). All patient materials were compiled from existing pathologic tissues generated as part of routine patient care (“discarded materials”), except for the P-IUD group, which was consented in advance. […]
Paraffin sections of endometrial biopsy and curetting specimens were rehydrated, and underwent antigen retrieval by microwave before overnight (4° C.) incubation with 1:300 murine monoclonal anti-PTEN antibody 6h2.1 (Cascade Biosciences, Winchester, Mass.) as previously described (Mutter, et al, Cancer Res 61:43114 (2001)). Slides were washed, and incubated with appropriate secondary biotinylated immunoglobulin (Vectastain ABC kit, Vector Laboratories, Inc., Burlingame, Calif.) and signal detected by sequential addition of avidin peroxidase and 3,3′-diaminobenzidine. […]

CC(=O)[C@@]1(O)CC[C@H]2[C@@H]3C[C@H](C)C4=CC(=O)CC[C@]4(C)[C@H]3CC[C@@]21C [p-cycle, medroxyprogesterone]
Change of latent precancers after therapy (in words): non-significant changes
